The test system of assay [1] is C. auris AR Bank #383. Nature of the assay: MIC determination by in vitro antifungal assay. The format is cell-based, Candida auris. On the procedure: (§1) The antifungal agent amphotericin B (AmB) was purchased from VWR (Radnor PA, USA). AmB was dissolved in DMSO at a final concentration of 5 mg/mL and was stored at −20° C., protected from light. Candida albicans American Type Culture Collection (ATCC) 10231 (strain A), C. albicans ATCC 64124 (B), and C. albicans ATCC MYA-2876 (C) were obtained from Utah State University. C. albicans ATCC 90819 (D), C. albicans ATCC MYA-2310 (E), C. albicans ATCC MYA-1237 (F), C. albicans ATCC MYA-1003 (G), Candida glabrata ATCC 2001 (H), Candida krusei ATCC 6258 (I), Candida parapsilosis ATCC 22019 (J), Cryptococcus neoformans ATCC MYA-895 (M), Aspergillus terreus ATCC MYA-3633 (N), and Aspergillus flavus ATCC MYA-3631 (0) were obtained from the American Type Culture Collection (ATCC; Manassas, VA, USA). Aspergillus nidulans ATCC 38163 (P) was obtained from University of Kentucky. Clinically derived Aspergillus fumigatus NRRL 163 (Q), A. fumigatus NRRL 5109 (R), and A. fumigatus NRRL 6113 (S) were obtained from Northern Regional Research Laboratory (NRRL). Candida auris 384 (K), C. auris 390 (L), and fungal strains 381-400 (including 10 C. auris (AR Bank #381-390), 3 Candida duobushaemulonii (AR Bank #391, AR Bank #392, and AR Bank #394), 2 Candida haemulonii (AR Bank #393 and AR Bank #395), 1 Kodameae ohmeri (AR Bank #396), 1 C. krusei (AR Bank #397), 1 Candida lusitaniae (AR Bank #398), and 2 Saccharomyces cerevisiae strains (AR Bank #399 and AR Bank #400)) were part of a larger fungal library from the AR Bank maintained by the Centers for Disease Control and Prevention (CDC; Atlanta, GA, USA). Filamentous fungi and yeasts were cultivated at 35° C. in RPMI 1640 medium (with L-glutamine, without sodium bicarbonate, Sigma-Aldrich, St. Louis, MO) buffered to a pH of 7.0 with 0.165 M morpholinepropanesulfonic acid (MOPS) buffer (Sigma-Aldrich). For cytotoxicity assays, HepG2 and the mouse macrophage cell line J774A.1 were obtained from University of Kentucky. The human embryonic kidney cell line, HEK-293, was bought from the ATCC. Mammalian cells were grown in Dulbecco's Modified Eagle's Medium (DMEM) (from VWR) with 10% fetal bovine serum (FBS) (from VWR) and 1% Pen/Strep (from ATCC). Cell lines were cultured at 37° C. with 5% CO2 and passaged by trypsinization with 0.05% trypsin: 0.53 mM EDTA (from Sigma-Aldrich).
(§2) From the actively growing yeast culture, 100 µL were then transferred to 900 μL of RPMI 1640 medium and re-adjusted to achieve OD600 of 0.12 (˜1×10^6 CFU/mL). The cell suspension was further diluted to achieve 1:100 in RPMI 1640 medium.

For assay [2], the system named is C. auris AR Bank #381. In words: MIC determination by in vitro antifungal assay. The format is cell-based, Candida auris. The method, then: as §1, §2
For assay [3], the system named is C. auris AR Bank #386. In words: MIC determination by in vitro antifungal assay. The format is cell-based, Candida auris. The method, then:
as §1, §2

The test system of assay [4] is C. auris AR Bank #388. In words: MIC determination by in vitro antifungal assay. The format is cell-based, Candida auris. On the procedure: as §1, §2
Assay [5] deals with C. auris AR Bank #389. In words: MIC determination by in vitro antifungal assay. In kind it is cell-based, Candida auris. The method, then:
as §1, §2

The test system of assay [6] is C. auris AR Bank #382. Nature of the assay: MIC determination by in vitro antifungal assay. In kind it is cell-based, Candida auris. The method, then: as §1, §2
Assay [7] concerns C. auris AR Bank #385. Nature of the assay: MIC determination by in vitro antifungal assay. The format is cell-based, Candida auris. The method, then: as §1, §2
Assay [8] has as its system C. auris AR Bank #387. In words: MIC determination by in vitro antifungal assay. The format is cell-based, Candida auris. On the procedure: as §1, §2
In assay [9] the test system is Candida duobushaemulonii AR Bank #394. In words: MIC determination by in vitro antifungal assay. In kind it is cell-based. On the procedure: as §1, §2
Assay [10] has as its system Saccharomyces cerevisiae AR Bank #399. In words: MIC determination by in vitro antifungal assay. The format is cell-based. On the procedure: as §1, §2
Assay [11] relates to Candida duobushaemulonii AR Bank #392. Nature of the assay: MIC determination by in vitro antifungal assay. The format is cell-based. On the procedure: as §1, §2
Assay [12] concerns Candida haemulonii AR Bank #395. Nature of the assay: MIC determination by in vitro antifungal assay. In kind it is cell-based. The method, then: as §1, §2
The test system of assay [13] is Candida krusei AR Bank #397. In words: MIC determination by in vitro antifungal assay. The conditions noted are these: Candida strain AR Bank #397. In kind it is cell-based. On the procedure:
as §1, §2

Assay [14] deals with Kodameae ohmeri AR Bank #396. Nature of the assay: MIC determination by in vitro antifungal assay. In kind it is cell-based. The conditions noted are these: strain AR Bank #396. The method, then:
as §1, §2

The test system of assay [15] is Candida duobushaemulonii AR Bank #391. In words: MIC determination by in vitro antifungal assay. In kind it is cell-based. On the procedure:
as §1, §2

The subject of assay [16] is Candida lusitaniae AR Bank #398. In words: MIC determination by in vitro antifungal assay. The format is cell-based. The settings on record: Candida strain AR Bank #398. The method, then:
as §1, §2

The test system of assay [17] is Candida haemulonii AR Bank #393. In words: MIC determination by in vitro antifungal assay. In kind it is cell-based. On the procedure: as §1, §2
Assay [18] has as its system panel of ten C. auris strains (AR Bank #381-390). In words: MIC determination, summary over the C. auris panel. The format is cell-based, Candida auris. The settings on record: Candidozyma auris. On the procedure:
as §1, §2

Where [19] appears, read: Candidozyma auris, C. auris AR Bank # 383 (Table 2B), read-out: MIC.
[20] abbreviates: Candidozyma auris, C. auris AR Bank # 381 (Table 2B), read-out: MIC.
Setting [21] is: Candidozyma auris, C. auris AR Bank # 386 (Table 2B), read-out: MIC.
The mark [22] stands for this setting: Candidozyma auris, C. auris AR Bank # 388 (Table 2B), read-out: MIC.
[23] abbreviates: Candidozyma auris, C. auris AR Bank # 389 (Table 2B), read-out: MIC.
Setting [24] is: Candidozyma auris, C. auris AR Bank # 382 (Table 2B), read-out: MIC.
Setting [25] is: Candidozyma auris, C. auris AR Bank # 385 (Table 2B), read-out: MIC.
The mark [26] stands for this setting: Candidozyma auris, C. auris AR Bank # 387 (Table 2B), read-out: MIC.
[27] abbreviates: all C. auris strains tested with the exception of AR Bank #390.

This is an account of results in US20240425464A1, “Substituted Monohydrazides as Potent Antifungal Agents” (University of Kentucky Research Foundation, priority 2023, published 2024).

In brackets after ≈: the same amount, converted by molar mass. Where two headings read alike, the source gives them in different places.

As for `C[C@@H]1[C@H](O)[C@@H](C)/C=C/C=C/C=C/C=C/C=C/C=C/C=C/[C@H](O[C@@H]2O[C@H](C)[C@@H](O)[C@H](N)[C@@H]2O)C[C@@H]2O[C@](O)(C[C@@H](O)C[C@@H](O)[C@H](O)CC[C@@H](O)C[C@@H](O)CC(=O)O[C@H]1C)C[C@H](O)[C@H]2C(=O)O` [AmB, amphotericin B, reference compound], the MIC in [1] (C. auris AR Bank #383) stood at 1.95 μg/mL^−1; in [1] (C. auris AR Bank # 383 (Table 2B)), 1.95 μg/mL^−1; in [2] (C. auris AR Bank #381), 0.98 μg/mL^−1; in assay [2] (C. auris AR Bank # 381 (Table 2B)), 0.98 μg/mL^−1; in assay [3] (C. auris AR Bank #386), 0.98 μg/mL^−1; in assay [3] (C. auris AR Bank # 386 (Table 2B)), 0.98 μg/mL^−1. For the same compound, the MIC in assay [4] (C. auris AR Bank #388) was determined as 1.95 μg/mL^−1; in assay [4] (C. auris AR Bank # 388 (Table 2B)) it was 1.95 μg/mL^−1; in [5] (C. auris AR Bank #389), 1.95 μg/mL^−1; in [5] (C. auris AR Bank # 389 (Table 2B)), 1.95 μg/mL^−1; in assay [6] (C. auris AR Bank #382), 0.98 μg/mL^−1; in [6] (C. auris AR Bank # 382 (Table 2B)) it was 0.98 μg/mL^−1. For the same compound, the MIC in [7] (C. auris AR Bank #385) is listed as 1.95 μg/mL^−1; in assay [7] (C. auris AR Bank # 385 (Table 2B)) it was 1.95 μg/mL^−1; in [8] (C. auris AR Bank #387), 0.98 μg/mL^−1; in [8] (C. auris AR Bank # 387 (Table 2B)), 0.98 μg/mL^−1; in assay [9], 0.98 μg/mL^−1; in assay [10], 15.6 μg/mL^−1. Moreover, the MIC in assay [11] was 7.8 μg/mL^−1; in assay [12] it was 3.9 μg/mL^−1; in assay [13] it was 0.49 μg/mL^−1; in assay [14] it was 1.95 μg/mL^−1; in assay [15], 7.8 μg/mL^−1; in assay [16], 3.9 μg/mL^−1. Besides, the MIC in assay [17] is recorded as 13.6 μg/mL^−1.

For the compound `O=C(NNc1cccc(F)c1)c1ccccn1` [Compound 2a], the MIC is 1.95 μg/mL^−1 in assay [1] (C. auris AR Bank #383); 0.49 μg/mL^−1 in assay [2] (C. auris AR Bank #381); 0.49 μg/mL^−1 in [3] (C. auris AR Bank #386); 0.49 μg/mL^−1 in assay [4] (C. auris AR Bank #388); 0.12 μg/mL^−1 in [5] (C. auris AR Bank #389); 0.98 μg/mL^−1 in assay [6] (C. auris AR Bank #382). Moreover, the MIC in [7] (C. auris AR Bank #385) was 0.98 μg/mL^−1; in assay [8] (C. auris AR Bank #387), 0.49 μg/mL^−1; in assay [9], 0.49 μg/mL^−1; in assay [10], 1.95 μg/mL^−1; in assay [11] it was 0.24 μg/mL^−1; in [12] it was ≤0.06 μg/mL^−1. For the same compound, the MIC is given as 0.24 μg/mL^−1 in assay [13]; 0.24 μg/mL^−1 in [14]; 0.49 μg/mL^−1 in assay [15]; 0.98 μg/mL^−1 in assay [16]; 0.12 μg/mL^−1 in assay [17].

With `O=C(NNc1ccc(F)cc1)c1nc(F)ccc1F` [Compound 8d], the MIC came out at 0.98 µg/mL (≈ 3.67 µM) in assay [1] (setting [19]); 0.98 µg/mL (≈ 3.67 µM) in assay [2] (setting [20]); 0.98 µg/mL (≈ 3.67 µM) in assay [3] (setting [21]); 0.49 µg/mL (≈ 1.83 µM) in [4] (setting [22]); 0.98 µg/mL (≈ 3.67 µM) in assay [5] (setting [23]); 0.98 µg/mL (≈ 3.67 µM) in assay [6] (setting [24]). The results for the MIC in assay [7] (setting [25]), in assay [8] (setting [26]) and in assay [18] (against all ten C. auris strains tested (AR Bank #381-390)) were 0.24 µg/mL (≈ 0.898 µM), 0.49 µg/mL (≈ 1.83 µM) and 0.06 to 1.95 µg/mL (≈ 0.225 to 7.3 µM), respectively.

Consider `COc1ccc(NNC(=O)c2nc(F)ccc2F)cc1` [Compound 8f], for which the MIC worked out at 1.95 µg/mL (≈ 6.98 µM) in assay [1] (setting [19]); 0.98 µg/mL (≈ 3.51 µM) in [2] (setting [20]); 0.98 µg/mL (≈ 3.51 µM) in assay [3] (setting [21]); 0.98 µg/mL (≈ 3.51 µM) in assay [4] (setting [22]); 0.98 µg/mL (≈ 3.51 µM) in assay [5] (setting [23]); 0.98 µg/mL (≈ 3.51 µM) in assay [6] (setting [24]). The MIC was 0.49 µg/mL (≈ 1.75 µM) in [7] (setting [25]), 0.98 µg/mL (≈ 3.51 µM) in assay [8] (setting [26]) and 0.49 to 1.95 µg/mL (≈ 1.75 to 6.98 µM) in assay [18] (setting [27]).

As for `O=C(NNc1ccc(F)cc1F)c1nc(F)ccc1F` [Compound 8g], the MIC in [1] (setting [19]) was determined as 1.95 µg/mL (≈ 6.84 µM); in assay [2] (setting [20]) it was 1.95 µg/mL (≈ 6.84 µM); in [3] (setting [21]) it was 1.95 µg/mL (≈ 6.84 µM); in assay [4] (setting [22]), 0.98 µg/mL (≈ 3.44 µM); in [5] (setting [23]), 1.95 µg/mL (≈ 6.84 µM); in assay [6] (setting [24]), 1.95 µg/mL (≈ 6.84 µM). Besides, the figures for the MIC in assay [7] (setting [25]), in assay [8] (setting [26]) and in [18] (setting [27]) were 0.49 µg/mL (≈ 1.72 µM), 0.98 µg/mL (≈ 3.44 µM) and 0.49 to 1.95 µg/mL (≈ 1.72 to 6.84 µM), respectively.
